# Columns and labels:
# [1] = system: pulmonary vascular endothelial cells of irradiated lung; assay: Pulmonary fibrosis inhibition test in experimental animal model (trichrome staining of collagen); type: in vivo, C57BL/6 mouse; conditions: 10 mg/kg intraperitoneally one hour before 90 Gy lung irradiation; inner wall of the aorta of lung tissue; compared to irradiation group (IR)
# Method: The tissue of a mouse was fixed with 10% neutral formalin for one day, and a paraffin section was made. In order to remove paraffin around the tissue, the tissue was allowed to react with a xylene solution and 95%, 90%, and 70% ethanol solutions in sequential order for 5 minutes each. For the antigen activation of the tissue, the tissue was immersed in a 0.1 M citric acid solution (pH 6.0) and then boiled for 20 minutes. Subsequently, the tissue was allowed to react with a Bouin's solution for 1 minute, Weigert's hematoxylin for 10 minutes, phoshotunstic/phosphomolydic acid for 10 minutes, aniline blue for 5 minutes, and 1% acetic acid for 1 minute in sequential order. Thereafter, a dehydration process was performed, and then the tissue was covered with a cover glass and observed under a microscope (Carl Zeiss Vision). In order to observe whether a phenomenon of pulmonary fibrosis of vascular endothelial cells is shown as the symptom of pulmonary fibrosis occurred after radiotherapy, the site of the lung of a C57BL/6 mouse was topically irradiated with an intensity of 90 Gy. After excising the lung from the mouse, the cross-section of the aorta of the lung tissue was stained by a trichrome staining method in order to identify collagen which is a protein shown upon fibrosis of the pulmonary vascular endothelial cells. […]
# [2] = system: lung tissue of a mouse animal model irradiated with 90 Gy; assay: Inhibition test on tissue damage caused by radiation (H&E staining of lung tissue); type: in vivo; conditions: 10 mg/kg intraperitoneally one hour before 90 Gy chest irradiation; two weeks after irradiation; compared to non-treatment group (IR)
# Method: The tissue of a mouse was fixed with 10% neutral formalin for one day, and a paraffin section was made. In order to remove the paraffin around the tissue, the tissue was allowed to react with a xylene solution and 95%, 90%, and 70% ethanol solutions in sequential order for 5 minutes each, and then immersed in a hematoxylin solution for 1 minute to stain the nuclei and then washed under running water for 10 minutes. Thereafter, the cytoplasm was stained by immersing the tissue in an eosin solution for 30 seconds. Thereafter, the tissue was immersed in 50%, 70%, 90%, and 95% ethanol solutions, and a xylene solution in sequential order, followed by dropping one drop of a mounting solution. Then, the tissue was covered with a cover slide and observed under a microscope (Carl Zeiss Vision). The lung tissue of a mouse animal model, in which the chest of the mouse was irradiated in a size of 3 mm with an intensity of 90 Gy, was fixed with 10% formalin, and a paraffin section was made. Thereafter, tissue inflammatory response and fibrosis were identified by using a hematoxylin and eosin staining method. Upon observing the tissue with this staining method, the cell nucleus is observed in blue and the cytoplasm in pink. One hour before irradiating the mouse animal model, 10 mg/kg of Dacomitinib was administered intraperitoneally. […]
# [3] = system: lung tissue of bleomycin-injected mouse; assay: Inhibition test on tissue damage caused by bleomycin (bleomycin-induced pulmonary fibrosis model); type: in vivo; conditions: 10 mg/kg intraperitoneally one hour before 1.25 U/kg bleomycin into the airway; three weeks after injection; compared to non-treatment group
# Method: The tissue of a mouse was fixed with 10% neutral formalin for one day, and a paraffin section was made. In order to remove the paraffin around the tissue, the tissue was allowed to react with a xylene solution and 95%, 90%, and 70% ethanol solutions in sequential order for 5 minutes each, and then immersed in a hematoxylin solution for 1 minute to stain the nuclei and then washed under running water for 10 minutes. Thereafter, the cytoplasm was stained by immersing the tissue in an eosin solution for 30 seconds. Thereafter, the tissue was immersed in 50%, 70%, 90%, and 95% ethanol solutions, and a xylene solution in sequential order, followed by dropping one drop of a mounting solution. Then, the tissue was covered with a cover slide and observed under a microscope (Carl Zeiss Vision). The tissue of a mouse was fixed with 10% neutral formalin for one day, and a paraffin section was made. In order to remove paraffin around the tissue, the tissue was allowed to react with a xylene solution and 95%, 90%, and 70% ethanol solutions in sequential order for 5 minutes each. For the antigen activation of the tissue, the tissue was immersed in a 0.1 M citric acid solution (pH 6.0) and then boiled for 20 minutes. […]
# [4] = system: γH2AX in irradiated lung tissue; assay: Inhibition test on DNA damage caused by radiation (γH2AX immunostaining); type: in vivo, mouse; conditions: 10 mg/kg one hour prior to 90 Gy lung irradiation; compared to non-treatment group (IR)
# Method: The tissue of a mouse was fixed with 10% neutral formalin for one day, and a paraffin section was made. In order to remove paraffin around the tissue, the tissue was immersed in a xylene solution and 100%, 95%, 90%, and 70% ethanol solutions in sequential order. For the antigen activation of the tissue, the tissue was immersed in a 0.1 M citric acid solution (pH 6.0) and boiled for 30 minutes, and then reacted with 3% hydrogen peroxide for 15 minutes. The tissue was allowed to react with γH2AX (abcam), which was diluted in 1:200 ratio in a PBS solution (including phosphate based saline buffer and 0.1% triton x-100), at 4° C. for 16 hours. After washing the tissue with PBS, a secondary antibody conjugated with biotin was diluted in 1:200 ratio and reacted with the tissue at room temperature for 30 minutes. After reacting the tissue with ABC (Avidin biotin complex) at room temperature for 30 minutes and color-developing 3,3′-DAB (3,3′-diaminobenzidine), the tissue was counterstained with hematoxylin. Subsequently, the tissue was immersed in 50%, 70%, 90%, 95%, and 100% ethanol solutions and a xylene solution in sequential order, followed by dropping one drop of a mounting solution. Then, the tissue was covered with a cover slide and observed under a microscope (Carl Zeiss Vision). […]
# [5] = system: vascular wall in the lung tissue of a mouse animal model irradiated with 90 Gy; assay: Inhibition test on in vivo vascular damage caused by radiation (vascular wall thickness, H&E staining); conditions: 10 mg/kg intraperitoneally one hour before 90 Gy chest irradiation; two weeks after irradiation; compared to non-treatment group (IR)
# Method: The tissue of a mouse was fixed with 10% neutral formalin for one day, and a paraffin section was made. In order to remove the paraffin around the tissue, the tissue was allowed to react with a xylene solution and 95%, 90%, and 70% ethanol solutions in sequential order for 5 minutes each, and then immersed in a hematoxylin solution for 1 minute to stain the nuclei and then washed under running water for 10 minutes. Thereafter, the cytoplasm was stained by immersing the tissue in an eosin solution for 30 seconds. Thereafter, the tissue was immersed in 50%, 70%, 90%, and 95% ethanol solutions, and a xylene solution in sequential order, followed by dropping one drop of a mounting solution. Then, the tissue was covered with a cover slide and observed under a microscope (Carl Zeiss Vision). The lung tissue of a mouse animal model, in which the chest of the mouse was irradiated in a size of 3 mm with an intensity of 90 Gy, was fixed with 10% formalin, and a paraffin section was made. Thereafter, the tissue was stained with hematoxylin and eosin. Upon observing the tissue with this staining method, the cell nucleus is observed in blue and the cytoplasm in pink. One hour before irradiating the mouse animal model, 10 mg/kg of Dacomitinib was administered intraperitoneally. […]
smiles,measurement,setting,value
"COc1cc2ncnc(Nc3ccc(F)c(Cl)c3)c2cc1NC(=O)/C=C/CN1CCCCC1 [Dacomitinib, (2E)-N-{4-[(3-chloro-4-fluorophenyl)amino]-7-methoxy-6-quinazolinyl}-4-(1-piperidinyl)-2-but enamide]","blue sites of collagen (protein associated with pulmonary fibrosis), trichrome staining",[1],remarkably reduced
same,infiltration of the inflammatory cells and the fibrotic matrix around blood vessels,[2],remarkably reduced
same,"pathological characteristics such as infiltration of inflammatory cells, fibrous nodules, interstitial thickening",[3],remarkably inhibited
same,expression of γH2AX according to the DNA damage,[4],remarkably reduced
same,thickness of the vascular wall,[5],remarkably reduced

# From US20230165861A1, “USE FOR PROTECTING OR MITIGATING RADIATION DAMAGE, AND FOR PREVENTING OR TREATING PULMONARY FIBROSIS” (KOREA INSTITUTE OF RADIOLOGICAL & MEDICAL SCIENCES, priority 2017, published 2023)
